In US20240190849A1, “AMINOPYRIMIDINE COMPOUNDS AND METHODS OF THEIR USE” (TYRA BIOSCIENCES, INC., priority 2021, published 2024):

Tests used:
Conditions in all cases: FGFR binding data
[1] = target: T1, FGFR1 (Homo sapiens, UniProt P11362); assay: Kinase binding assay (kinase-tagged T7 phage, affinity beads, qPCR readout), FGFR1
T1 construct: made in house; host or cells: E. coli derived from BL21, infected with T7 phage
Method in brief: (§1)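 Competition binding: kinases displaced from biotinylated-ligand streptavidin beads by test compound in binding buffer (20% SeaBlock, 0.17×PBS, 0.05% Tween 20, 6 mM DTT), 1 hour at room temperature, 0.9% DMSO. Bead-bound kinase eluted with 0.5 μM free ligand, quantified by qPCR. Kd from 11-point 3-fold dilutions, Hill slope fixed at −1.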

[2] = target: T2, FGFR2 (Homo sapiens, UniProt P21802); assay: Kinase binding assay (kinase-tagged T7 phage, affinity beads, qPCR readout), FGFR2
T2 construct: made in house; host or cells: E. coli derived from BL21, infected with T7 phage
T2 sequence (P21802 22-821): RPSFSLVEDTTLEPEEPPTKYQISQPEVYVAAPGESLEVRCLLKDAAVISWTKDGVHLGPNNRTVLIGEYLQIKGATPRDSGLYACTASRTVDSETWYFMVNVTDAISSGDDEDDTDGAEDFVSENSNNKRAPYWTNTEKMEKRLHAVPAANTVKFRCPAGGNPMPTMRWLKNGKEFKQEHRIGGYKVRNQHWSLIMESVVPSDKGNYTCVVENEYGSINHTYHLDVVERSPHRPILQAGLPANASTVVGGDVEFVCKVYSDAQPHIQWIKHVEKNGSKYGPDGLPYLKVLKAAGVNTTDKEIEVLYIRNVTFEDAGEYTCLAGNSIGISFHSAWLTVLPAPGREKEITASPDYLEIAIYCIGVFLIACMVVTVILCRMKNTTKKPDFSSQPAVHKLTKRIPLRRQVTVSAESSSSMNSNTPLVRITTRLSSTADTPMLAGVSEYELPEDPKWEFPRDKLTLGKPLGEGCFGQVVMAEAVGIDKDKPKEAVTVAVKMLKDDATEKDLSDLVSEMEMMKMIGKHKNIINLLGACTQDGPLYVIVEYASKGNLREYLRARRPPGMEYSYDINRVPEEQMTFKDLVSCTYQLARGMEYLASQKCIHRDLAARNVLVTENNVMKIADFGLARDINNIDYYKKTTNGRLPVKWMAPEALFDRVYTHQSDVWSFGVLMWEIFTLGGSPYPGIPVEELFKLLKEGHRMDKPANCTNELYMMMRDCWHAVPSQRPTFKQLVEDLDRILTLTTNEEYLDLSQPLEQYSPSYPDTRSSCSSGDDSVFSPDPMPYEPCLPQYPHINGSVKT
Method in brief: as §1

[3] = target: T3, FGFR3 (Homo sapiens, UniProt P22607); assay: Kinase binding assay (kinase-tagged T7 phage, affinity beads, qPCR readout), FGFR3
T3 construct: made in house; host or cells: E. coli derived from BL21, infected with T7 phage
T3 sequence (P22607 23-806): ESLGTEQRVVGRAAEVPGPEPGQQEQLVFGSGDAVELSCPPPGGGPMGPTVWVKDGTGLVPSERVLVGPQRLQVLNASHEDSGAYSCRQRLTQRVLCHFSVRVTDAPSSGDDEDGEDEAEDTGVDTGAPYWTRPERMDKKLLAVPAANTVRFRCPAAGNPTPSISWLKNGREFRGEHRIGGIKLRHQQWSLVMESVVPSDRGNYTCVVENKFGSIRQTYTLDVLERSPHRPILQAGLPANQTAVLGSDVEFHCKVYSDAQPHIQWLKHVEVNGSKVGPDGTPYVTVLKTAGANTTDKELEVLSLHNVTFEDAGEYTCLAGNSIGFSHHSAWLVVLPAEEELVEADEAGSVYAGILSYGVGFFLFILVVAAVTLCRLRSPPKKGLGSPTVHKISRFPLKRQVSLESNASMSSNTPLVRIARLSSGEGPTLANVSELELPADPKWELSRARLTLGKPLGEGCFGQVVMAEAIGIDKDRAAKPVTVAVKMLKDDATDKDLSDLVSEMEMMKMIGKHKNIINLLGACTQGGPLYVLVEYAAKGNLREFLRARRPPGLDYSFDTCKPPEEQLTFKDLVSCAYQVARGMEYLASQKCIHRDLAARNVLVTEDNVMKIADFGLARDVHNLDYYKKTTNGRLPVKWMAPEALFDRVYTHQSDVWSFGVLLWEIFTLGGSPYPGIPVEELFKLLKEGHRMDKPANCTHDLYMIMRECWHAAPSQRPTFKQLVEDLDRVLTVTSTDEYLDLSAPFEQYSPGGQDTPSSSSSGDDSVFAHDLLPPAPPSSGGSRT
Method in brief: as §1

[4] = target: T4, FGFR3 (V555M) (Homo sapiens, UniProt P22607, V555M); assay: Kinase binding assay (kinase-tagged T7 phage, affinity beads, qPCR readout), FGFR3 (V555M)
T4 construct: made in house; host or cells: E. coli derived from BL21, infected with T7 phage
T4 sequence (P22607 23-806 V555M): as the sequence (P22607 23-806) above, with V533M counted along it
Method in brief: as §1

T1 sequence (P11362 22-822): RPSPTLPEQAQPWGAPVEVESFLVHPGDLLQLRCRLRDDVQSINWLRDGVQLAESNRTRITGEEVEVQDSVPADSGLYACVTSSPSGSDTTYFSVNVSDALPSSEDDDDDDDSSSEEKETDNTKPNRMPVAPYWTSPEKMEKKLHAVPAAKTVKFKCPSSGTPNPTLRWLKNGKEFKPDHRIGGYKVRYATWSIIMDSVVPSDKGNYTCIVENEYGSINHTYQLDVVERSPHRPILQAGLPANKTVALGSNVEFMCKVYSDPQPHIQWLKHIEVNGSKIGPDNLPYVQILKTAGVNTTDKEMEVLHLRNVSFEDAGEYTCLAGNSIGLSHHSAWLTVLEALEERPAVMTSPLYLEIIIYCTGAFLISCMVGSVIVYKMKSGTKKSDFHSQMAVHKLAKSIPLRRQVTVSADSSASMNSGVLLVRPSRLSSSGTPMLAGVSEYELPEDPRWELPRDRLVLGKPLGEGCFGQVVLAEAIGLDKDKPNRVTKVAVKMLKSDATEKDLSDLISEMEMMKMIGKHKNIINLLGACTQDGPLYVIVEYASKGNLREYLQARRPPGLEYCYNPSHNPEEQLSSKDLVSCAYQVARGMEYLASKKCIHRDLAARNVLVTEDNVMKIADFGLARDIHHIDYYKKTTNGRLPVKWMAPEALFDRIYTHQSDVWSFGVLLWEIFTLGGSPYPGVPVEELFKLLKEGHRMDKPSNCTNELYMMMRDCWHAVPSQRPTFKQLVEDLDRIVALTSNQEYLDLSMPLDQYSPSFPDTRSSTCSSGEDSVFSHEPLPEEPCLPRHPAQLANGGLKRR

Structure (SMILES) | Kd [1] | Kd [2] | Kd [3] | Kd [4]
CC#CC(=O)Nc1cnc2c(c1)c(C)cn2-c1nc(Nc2ccnn2C)ncc1C [Example 131, N-[3-methyl-1-[5-methyl-2-[(2-methylpyrazol-3-yl)amino]pyrimidin-4-yl]pyrrolo[2,3-b]pyridin-5-yl]but-2-ynamide] | > 1000 nM | > 1000 nM | > 1000 nM | > 1000 nM
C#CC(=O)Nc1cnc2c(c1)c(C)cn2-c1nc(Nc2ccnn2C)ncc1C [Example 132, N-[3-methyl-1-[5-methyl-2-[(2-methylpyrazol-3-yl)amino]pyrimidin-4-yl]pyrrolo[2,3-b]pyridin-5-yl]prop-2-ynamide] | 0.1 to 100 nM | 0.1 to 100 nM | 0.1 to 100 nM | 0.1 to 100 nM
C#CC(=O)Nc1cnc2c(c1)c(C)cn2-c1nc(Nc2cnn(CCO)c2)ncc1F [Example 133, N-[1-[5-fluoro-2-[[1-(2-hydroxyethyl)pyrazol-4-yl]amino]pyrimidin-4-yl]-3-methyl-pyrrolo[2,3-b]pyridin-5-yl]prop-2-ynamide] | 0.1 to 100 nM | 0.1 to 100 nM | 0.1 to 100 nM | 0.1 to 100 nM
CC#CC(=O)Nc1cnc2c(c1)c(C)cn2-c1nc(Nc2ccnn2C)ncc1F [Example 134, N-[1-[5-fluoro-2-[(2-methylpyrazol-3-yl)amino]pyrimidin-4-yl]-3-methyl-pyrrolo[2,3-b]pyridin-5-yl]but-2-ynamide] | > 1000 nM | > 1000 nM | > 1000 nM | > 1000 nM
CC#CC(=O)Nc1ccc2c(-c3nc(Nc4cnn(CCO)c4)ncc3Cl)cn(C)c2c1 [Example 135, N-[3-[5-chloro-2-[[1-(2-hydroxyethyl)pyrazol-4-yl]amino]pyrimidin-4-yl]-1-methyl-indol-6-yl]but-2-ynamide] | 250 to 1000 nM | 0.1 to 100 nM | 100 to 250 nM | 0.1 to 100 nM
C=CC(=O)Nc1ccc2c(c1)c(C)cn2-c1ccnc(Nc2cnn(CCO)c2)n1 [Example 137, N-[1-[2-[[1-(2-hydroxyethyl)pyrazol-4-yl]amino]pyrimidin-4-yl]-3-methyl-indol-5-yl]prop-2-enamide] | 0.1 to 100 nM | 0.1 to 100 nM | 0.1 to 100 nM | 0.1 to 100 nM
C#CC(=O)Nc1ccc2c(c1)c(C)cn2-c1nc(Nc2ccnn2C)ncc1F [Example 138, N-[1-[5-fluoro-2-[(2-methylpyrazol-3-yl)amino]pyrimidin-4-yl]-3-methyl-indol-5-yl]prop-2-ynamide] | 100 to 250 nM | 0.1 to 100 nM | 0.1 to 100 nM | 0.1 to 100 nM
CC#CC(=O)Nc1ccc2c(c1)c(C)cn2-c1nc(Nc2ccnn2C)ncc1F [Example 139, N-[1-[5-fluoro-2-[(2-methylpyrazol-3-yl)amino]pyrimidin-4-yl]-3-methyl-indol-5-yl]but-2-ynamide] | > 1000 nM | > 1000 nM | > 1000 nM | > 1000 nM
CC#CC(=O)Nc1ccc2c(c1)c(C)cn2-c1nc(Nc2cnn(CCO)c2)ncc1C [Example 140, N-[1-[2-[[1-(2-hydroxyethyl)pyrazol-4-yl]amino]-5-methyl-pyrimidin-4-yl]-3-methyl-indol-5-yl]but-2-ynamide] | 100 to 250 nM | 0.1 to 100 nM | 0.1 to 100 nM | 0.1 to 100 nM
C#CC(=O)Nc1cnc2c(c1)c(C)cn2-c1nc(Nc2cnn(CCO)c2)ncc1C [Example 141, N-[1-[2-[[1-(2-hydroxyethyl)pyrazol-4-yl]amino]-5-methyl-pyrimidin-4-yl]-3-methyl-pyrrolo[2,3-b]pyridin-5-yl]prop-2-ynamide] | 0.1 to 100 nM | 0.1 to 100 nM | 0.1 to 100 nM | 0.1 to 100 nM
C#CC(=O)Nc1ccc2c(-c3nc(Nc4cnn(CCO)c4)ncc3F)cn(C)c2c1 [Example 142, N-[3-[5-fluoro-2-[[1-(2-hydroxyethyl)pyrazol-4-yl]amino]pyrimidin-4-yl]-1-methyl-indol-6-yl]prop-2-ynamide] | 0.1 to 100 nM | 0.1 to 100 nM | 0.1 to 100 nM | 0.1 to 100 nM
C#CC(=O)Nc1ccc2c(-c3ccnc(Nc4cnn(CCO)c4)n3)cn(C)c2c1 [Example 143, N-[3-[2-[[1-(2-hydroxyethyl)pyrazol-4-yl]amino]pyrimidin-4-yl]-1-methyl-indol-6-yl]prop-2-ynamide] | 0.1 to 100 nM | 0.1 to 100 nM | 0.1 to 100 nM | 0.1 to 100 nM
CC#CC(=O)Nc1ccc2c(-c3ccnc(Nc4cnn(CCO)c4)n3)cn(C)c2c1 [Example 145, N-[3-[2-[[1-(2-hydroxyethyl)pyrazol-4-yl]amino]pyrimidin-4-yl]-1-methyl-indol-6-yl]but-2-ynamide] | > 1000 nM | 250 to 1000 nM | 250 to 1000 nM | 250 to 1000 nM
C=CC(=O)N(C)c1ccc2c(c1)c(C)cn2-c1nc(Nc2ccnn2C)ncc1C [Example 151, N-methyl-N-[3-methyl-1-[5-methyl-2-[(2-methylpyrazol-3-yl)amino]pyrimidin-4-yl]indol-5-yl]prop-2-enamide] | > 1000 nM | > 1000 nM | > 1000 nM | > 1000 nM
CC#CC(=O)N(C)c1ccc2c(c1)c(C)cn2-c1nc(Nc2ccnn2C)ncc1C [Example 152, N-methyl-N-[3-methyl-1-[5-methyl-2-[(2-methylpyrazol-3-yl)amino]pyrimidin-4-yl]indol-5-yl]but-2-ynamide] | > 1000 nM | > 1000 nM | > 1000 nM | > 1000 nM
C=CC(=O)Nc1ccc2c(c1)c(C)cn2-c1nc(Nc2conc2C)ncc1F [Example 155, N-[1-[5-fluoro-2-[(3-methylisoxazol-4-yl)amino]pyrimidin-4-yl]-3-methyl-indol-5-yl]prop-2-enamide] | 100 to 250 nM | 0.1 to 100 nM | 0.1 to 100 nM | 0.1 to 100 nM
C=CC(=O)Nc1ccc2c(c1)c(C)cn2-c1nc(Nc2cccnc2F)ncc1F [Example 157, N-[1-[5-fluoro-2-[(2-fluoro-3-pyridyl)amino]pyrimidin-4-yl]-3-methyl-indol-5-yl]prop-2-enamide] | 250 to 1000 nM | 0.1 to 100 nM | 0.1 to 100 nM | 0.1 to 100 nM
C=CC(=O)Nc1ccc2c(c1)c(C)cn2-c1nc(Nc2cn(C(C)(C)C#N)nc2C)ncc1F [Example 159, N-[1-[2-[[1-(1-cyano-1-methyl-ethyl)-3-methyl-pyrazol-4-yl]amino]-5-fluoro-pyrimidin-4-yl]-3-methyl-indol-5-yl]prop-2-enamide] | 0.1 to 100 nM | 0.1 to 100 nM | 0.1 to 100 nM | 0.1 to 100 nM
C=CC(=O)Nc1ccc2c(c1)c(C)cn2-c1nc(Nc2cc(C)sn2)ncc1F [Example 161, N-[1-[5-fluoro-2-[(5-methylisothiazol-3-yl)amino]pyrimidin-4-yl]-3-methyl-indol-5-yl]prop-2-enamide] | 0.1 to 100 nM | 0.1 to 100 nM | 0.1 to 100 nM | 0.1 to 100 nM
C=CC(=O)Nc1ccc2c(-c3ccnc(Nc4cnn(CC(F)(F)F)c4)n3)cn(C)c2c1 [Example 168, N-[1-methyl-3-[2-[[1-(2,2,2-trifluoroethyl)pyrazol-4-yl]amino]pyrimidin-4-yl]indol-6-yl]prop-2-enamide] | 0.1 to 100 nM | 0.1 to 100 nM | 0.1 to 100 nM | 0.1 to 100 nM
C=CC(=O)Nc1ccc2c(-c3nc(Nc4cn(CC(F)F)nc4C)ncc3F)cn(C)c2c1 [Example 169, N-[3-[2-[[1-(2,2-difluoroethyl)-3-methyl-pyrazol-4-yl]amino]-5-fluoro-pyrimidin-4-yl]-1-methyl-indol-6-yl]prop-2-enamide] | 250 to 1000 nM | 0.1 to 100 nM | 0.1 to 100 nM | 0.1 to 100 nM
C=CC(=O)Nc1ccc2c(-c3ccnc(Nc4cn(CC(F)F)nc4C)n3)cn(C)c2c1 [Example 170, N-[3-[2-[[1-(2,2-difluoroethyl)-3-methyl-pyrazol-4-yl]amino]pyrimidin-4-yl]-1-methyl-indol-6-yl]prop-2-enamide] | 100 to 250 nM | 0.1 to 100 nM | 0.1 to 100 nM | 0.1 to 100 nM
CCn1cc(Nc2ncc(F)c(-n3cc(C)c4cc(NC(=O)/C=C/CN(C)C)cnc43)n2)c(C)n1 [Example 171, (E)-4-(dimethylamino)-N-[1-[2-[(1-ethyl-3-methyl-pyrazol-4-yl)amino]-5-fluoro-pyrimidin-4-yl]-3-methyl-pyrrolo[2,3-b]pyridin-5-yl]but-2-enamide] | 100 to 250 nM | 100 to 250 nM | 0.1 to 100 nM | 100 to 250 nM
C=CC(=O)Nc1ccc2c(-c3ccnc(Nc4cn(C)nc4C)n3)cn(C)c2c1 [Example 172, N-[3-[2-[(1,3-dimethylpyrazol-4-yl)amino]pyrimidin-4-yl]-1-methyl-indol-6-yl]prop-2-enamide] | 250 to 1000 nM | 0.1 to 100 nM | 0.1 to 100 nM | 0.1 to 100 nM
C=CC(=O)Nc1ccc2c(-c3ccnc(Nc4cn(CC)nc4C)n3)cn(C)c2c1 [Example 173, N-[3-[2-[(1-ethyl-3-methyl-pyrazol-4-yl)amino]pyrimidin-4-yl]-1-methyl-indol-6-yl]prop-2-enamide] | 250 to 1000 nM | 100 to 250 nM | 0.1 to 100 nM | 0.1 to 100 nM
C=CC(=O)Nc1ccc2c(-c3nc(Nc4cn(CC)nc4C)ncc3F)cn(C)c2c1 [Example 177, N-[3-[2-[(1-ethyl-3-methyl-pyrazol-4-yl)amino]-5-fluoro-pyrimidin-4-yl]-1-methyl-indol-6-yl]prop-2-enamide] | 250 to 1000 nM | 0.1 to 100 nM | 0.1 to 100 nM | 0.1 to 100 nM
Cc1nn(C)cc1Nc1ncc(F)c(-n2cc(C)c3cc(NC(=O)/C=C/CN(C)C)cnc32)n1 [Example 179, (E)-4-(dimethylamino)-N-[1-[2-[(1,3-dimethylpyrazol-4-yl)amino]-5-fluoro-pyrimidin-4-yl]-3-methyl-pyrrolo[2,3-b]pyridin-5-yl]but-2-enamide] | 250 to 1000 nM | 100 to 250 nM | 100 to 250 nM | 100 to 250 nM
